According to PubChem BioAssay AID1259407 (Chemical Carcinogenesis Research Information System (CCRIS), 2018):
Activity calls are given as the source filed them. No rule for the calls is given here.

System: CCRIS mutagenicity, Ames/micronucleus/aberration tests
Assay: CCRIS mutagenicity studies
[1] = Test System: AMES SALMONELLA TYPHIMURIUM, Strain/Indicator: TA98, Metabolic Activation: NONE, Method: PREINCUBATION
[2] = Test System: AMES SALMONELLA TYPHIMURIUM, Strain/Indicator: TA100, Metabolic Activation: NONE, Method: PREINCUBATION
[3] = Test System: AMES SALMONELLA TYPHIMURIUM, Strain/Indicator: TA1535, Metabolic Activation: NONE, Method: PREINCUBATION

For c1ccoc1, the mutagenic call (End Point: In vitro micronucleus, Test System: Human lymphocytes, Metabolic Activation: None) was “inactive; negative”, the mutagenic call (End Point: In vitro micronucleus, Test System: Human lymphocytes, Metabolic Activation: Rat, liver, S-9, Aroclor 1254) was “inactive; negative” and the mutagenic call (End Point: In vitro micronucleus, Test System: Mouse lymphoma L5178Y cells, Metabolic Activation: None) was “inactive; negative”. For the same compound, the mutagenic call (End Point: In vivo micronucleus, Test System: Peripheral blood erythrocytes, Species: Mouse, Strain/Sex: Balb/C/Male, Route: Intraperitoneal) was “inactive; negative”, the mutagenic call (End Point: In vivo micronucleus, Test System: Peripheral blood erythrocytes, Species: Mouse, Strain/Sex: Balb/C/Male, Route: Subcutaneous) was “inactive; negative” and the mutagenic call (Test System: AMES SALMONELLA TYPHIMURIUM, Strain/Indicator: TA98, Metabolic Activation: HAMSTER, LIVER, S-9, AROCLOR 1254 (10%), Method: PREINCUBATION) was “inactive; negative”. For the same compound, the mutagenic call [1] was “inactive; negative”, the mutagenic call (Test System: AMES SALMONELLA TYPHIMURIUM, Strain/Indicator: TA98, Metabolic Activation: RAT, LIVER, S-9, AROCLOR 1254 (10%), Method: PREINCUBATION) was “inactive; negative” and the mutagenic call (Test System: AMES SALMONELLA TYPHIMURIUM, Strain/Indicator: TA98, Metabolic Activation: RAT, LIVER, S-9, AROCLOR 1254, Method: STANDARD PLATE) was “inactive; negative”. The mutagenic call (Test System: AMES SALMONELLA TYPHIMURIUM, Strain/Indicator: TA98, Metabolic Activation: S-9, Method: STANDARD PLATE) was “active; positive”, the mutagenic call (Test System: AMES SALMONELLA TYPHIMURIUM, Strain/Indicator: TA100, Metabolic Activation: HAMSTER, LIVER, S-9, AROCLOR 1254 (10%), Method: PREINCUBATION) was “inactive; negative” and the mutagenic call [2] was “inactive; negative”. The mutagenic call (Test System: AMES SALMONELLA TYPHIMURIUM, Strain/Indicator: TA100, Metabolic Activation: RAT, LIVER, S-9, AROCLOR 1254 (10%), Method: PREINCUBATION) was “inactive; negative”, the mutagenic call (Test System: AMES SALMONELLA TYPHIMURIUM, Strain/Indicator: TA100, Metabolic Activation: S-9, Method: STANDARD PLATE) was “inactive; negative” and the mutagenic call (Test System: AMES SALMONELLA TYPHIMURIUM, Strain/Indicator: TA1535, Metabolic Activation: HAMSTER, LIVER, S-9, AROCLOR 1254 (10%), Method: PREINCUBATION) was “inactive; negative”. The mutagenic call [3] was “inactive; negative”, the mutagenic call (Test System: AMES SALMONELLA TYPHIMURIUM, Strain/Indicator: TA1535, Metabolic Activation: RAT, LIVER, S-9, AROCLOR 1254 (10%), Method: PREINCUBATION) was “inactive; negative” and the mutagenic call (Test System: AMES SALMONELLA TYPHIMURIUM, Strain/Indicator: TA1537, Metabolic Activation: HAMSTER, LIVER, S-9, AROCLOR 1254 (10%), Method: PREINCUBATION) was “inactive; negative”. The mutagenic call (Test System: AMES SALMONELLA TYPHIMURIUM, Strain/Indicator: TA1537, Metabolic Activation: NONE, Method: PREINCUBATION) was “inactive; negative”, the mutagenic call (Test System: AMES SALMONELLA TYPHIMURIUM, Strain/Indicator: TA1537, Metabolic Activation: RAT, LIVER, S-9, AROCLOR 1254 (10%), Method: PREINCUBATION) was “inactive; negative” and the mutagenic call (Test System: Mouse lymphoma, Strain/Indicator: L5178Y (tk+/tk-), Metabolic Activation: None, Method: Preincubation) was “inactive; negative”.
In the case of COC(=O)C1=C(C)NC(C)=C(C(=O)OC)C1c1ccccc1[N+](=O)[O-], the mutagenic call (Test System: AMES SALMONELLA TYPHIMURIUM, Strain/Indicator: TA97, Metabolic Activation: HAMSTER, LIVER, S-9, AROCLOR 1254 (10 OR 30%), Method: PREINCUBATION) is reported as “inactive; negative”, the mutagenic call (Test System: AMES SALMONELLA TYPHIMURIUM, Strain/Indicator: TA97, Metabolic Activation: NONE, Method: PREINCUBATION) is reported as “inactive; negative” and the mutagenic call (Test System: AMES SALMONELLA TYPHIMURIUM, Strain/Indicator: TA97, Metabolic Activation: RAT, LIVER, S-9, AROCLOR 1254 (10 OR 30%), Method: PREINCUBATION) is reported as “inactive; negative”. For the same compound, the mutagenic call (Test System: AMES SALMONELLA TYPHIMURIUM, Strain/Indicator: TA98, Metabolic Activation: HAMSTER, LIVER, S-9, AROCLOR 1254 (10 OR 30%), Method: PREINCUBATION) was “inactive; negative”, the mutagenic call [1] was “inactive; negative” and the mutagenic call (Test System: AMES SALMONELLA TYPHIMURIUM, Strain/Indicator: TA98, Metabolic Activation: RAT, LIVER, S-9, AROCLOR 1254 (10 OR 30%), Method: PREINCUBATION) was “inactive; negative”. For the same compound, the mutagenic call (Test System: AMES SALMONELLA TYPHIMURIUM, Strain/Indicator: TA100, Metabolic Activation: HAMSTER, LIVER, S-9, AROCLOR 1254 (10 OR 30%), Method: PREINCUBATION) was “inactive; negative”, the mutagenic call [2] was “inactive; negative” and the mutagenic call (Test System: AMES SALMONELLA TYPHIMURIUM, Strain/Indicator: TA100, Metabolic Activation: RAT, LIVER, S-9, AROCLOR 1254 (10 OR 30%), Method: PREINCUBATION) was “inactive; negative”. The mutagenic call (Test System: AMES SALMONELLA TYPHIMURIUM, Strain/Indicator: TA1535, Metabolic Activation: HAMSTER, LIVER, S-9, AROCLOR 1254 (10 OR 30%), Method: PREINCUBATION) was “inactive; negative”, the mutagenic call [3] was “inactive; negative” and the mutagenic call (Test System: AMES SALMONELLA TYPHIMURIUM, Strain/Indicator: TA1535, Metabolic Activation: RAT, LIVER, S-9, AROCLOR 1254 (10 OR 30%), Method: PREINCUBATION) was “inactive; negative”.
